Source: patent US20260256792A1, “TREATMENT OF CHRONIC SPONTANEOUS URTICARIA BY ADMINISTERING (R)-2-[3-[4-AMINO-3-(2-FLUORO-4-PHENOXY-PHENYL)PYRAZOLO[3,4-D]PYRIMIDIN-1-YL]PIPERIDINE-1-CARBONYL]-4-METHYL-4-[4-(OXETAN-3-YL)PIPERAZIN-1-YL]PENT-2-ENENITRILE” (priority 2023, published 2026)

Test system: moderate-to-severe chronic spontaneous urticaria (CSU)
Experiment: Phase 2 CSU study: urticaria activity score over 7 days (UAS7)
Type: in vivo, human
Conditions: Omalizumab-naïve, 400 mg QPM
From the text: The study comprises a 12 week, randomized, double-blind, placebo-controlled, multi-center, dose-ranging efficacy and safety phase, followed by a 40 week open label extension (OLE) phase (see FIG. 1). The study consists of three phases and an optional OLE phase. […] Clinically, CSU is characterized by the spontaneous and recurrent appearance of pruritic hives. The proposed primary endpoints were the UAS7 at Week 12 in EU and EU reference countries and the ISS7 in the US. Regardless of where a participant was from, all assessments were the same. The UAS7 score is a composite score containing both the HSS7 and the ISS7. This allowed a global assessment of the two key components of urticaria: hives and itch. […] The UAS is a validated PRO measure. […] The daily UAS scores range from 0 to 6 point/day. […] Patients were to complete the UAS using the e-diary. […] The following secondary endpoints were to be analyzed using the same approach as for the primary endpoint: • Change from baseline in UAS7 at Week 4 • Change from baseline in UAS7 at Week 12 (for US and US reference countries) • Change from baseline in ISS7 at Week 12 (except US and US reference countries) • Change from baseline in HSS7 at Week 12 The following responder secondary endpoints were to be analyzed using the Cochran-Mantel-Haenszel test adjusted by region: • Proportion of participants with UAS7<6 at Week 12 • Proportion of participants with UAS7=0 at Week 12 Participants who received selected prohibited medications and/or rescue medications were to be considered as non-responders for time points after the medication usage. For other participants, all available data including those collected during the off-treatment period were to be used to determine the responder/non-responder status. Missing data were to be considered as non-responders.

With `CC(C)(C=C(C#N)C(=O)N1CCC[C@@H](n2nc(-c3ccc(Oc4ccccc4)cc3F)c3c(N)ncnc32)C1)N1CCN(C2COC2)CC1` [rilzabrutinib, (R)-2-[3-[4-amino-3-(2-fluoro-4-phenoxy-phenyl)pyrazolo[3,4-d]pyrimidin-1-yl]piperidine-1-carbonyl]-4-methyl-4-[4-(oxetan-3-yl)piperazin-1-yl]pent-2-enenitrile] the “Non-responder n (%), UAS7 ≤6” value (Week 1) was 35 (94.6) n (%), the “OR for rilzabrutinib vs. placebo, UAS7 = 0” value (Week 1) was 0.000 (NE, and the “RRD (%) for rilzabrutinib vs. placebo, UAS7 = 0” value (from here on “RRD (%) … UAS7 = 0”) (Week 1) was −2.9 %. For the same compound, the “RRD (%) for rilzabrutinib vs. placebo, UAS7 ≤6” value (“RRD (%) … UAS7 ≤6” for short) (Week 1) was −0.0%, the “Responder n (%), UAS7 = 0” value (Week 1) was 0 n (%) and the “Responder n (%), UAS7 ≤6” value (Week 1) was 2 (5.4) n (%). For the same compound, the “Imputed non-responder n (%), UAS7 = 0” value (Week 2) was 0 n (%), the “Imputed non-responder n (%), UAS7 ≤6” value (Week 2) was 0 n (%) and the “Non-responder n (%), UAS7 = 0” value (Week 2) was 37 (100) n (%). For the same compound, the “Non-responder n (%), UAS7 ≤6” value (Week 2) was 36 (97.3) n (%), the “OR for rilzabrutinib vs. placebo, UAS7 = 0” value (Week 2) was 0.000 (NE, and the “OR for rilzabrutinib vs. placebo, UAS7 ≤6” value (Week 2) was 0.489. The “RRD (%) … UAS7 = 0” value (Week 2) was −2.9 %, the “RRD (%) … UAS7 ≤6” value (Week 2) was −2.7% and the “Responder n (%), UAS7 = 0” value (Week 2) was 0 n (%). The “Responder n (%), UAS7 ≤6” value (Week 2) was 1 (2.7) n (%), the “Imputed non-responder n (%), UAS7 = 0” value (Week 3) was 0 n (%) and the “Imputed non-responder n (%), UAS7 ≤6” value (Week 3) was 0 n (%). The “Non-responder n (%), UAS7 = 0” value (Week 3) was 37 (100) n (%), the “Non-responder n (%), UAS7 ≤6” value (Week 3) was 35 (94.6) n (%) and the “OR for rilzabrutinib vs. placebo, UAS7 = 0” value (Week 3) was 0.000 (NE,. For the same compound, the “OR for rilzabrutinib vs. placebo, UAS7 ≤6” value (Week 3) was 0.666, the “RRD (%) … UAS7 = 0” value (Week 3) was −2.9 % and the “RRD (%) … UAS7 ≤6” value (Week 3) was −2.5%. For the same compound, the “Responder n (%), UAS7 = 0” value (Week 3) was 0 n (%), the “Responder n (%), UAS7 ≤6” value (Week 3) was 2 (5.4) n (%) and the “Imputed non-responder n (%), UAS7 = 0” value (Week 4) was 1 (2.7) n (%). The “Imputed non-responder n (%), UAS7 ≤6” value (Week 4) was 1 (2.7) n (%), the “Non-responder n (%), UAS7 = 0” value (Week 4) was 37 (100) n (%) and the “Non-responder n (%), UAS7 ≤6” value (Week 4) was 35 (94.6) n (%). For the same compound, the “OR for rilzabrutinib vs. placebo, UAS7 = 0” value (Week 4) was 0.000 (NE,, the “OR for rilzabrutinib vs. placebo, UAS7 ≤6” value (Week 4) was 0.486 and the “RRD (%) … UAS7 = 0” value (Week 4) was −5.3 %. The “RRD (%) … UAS7 ≤6” value (Week 4) was −5.0%, the “Responder n (%), UAS7 = 0” value (Week 4) was 0 n (%) and the “Responder n (%), UAS7 ≤6” value (Week 4) was 2 (5.4) n (%). For the same compound, the “Imputed non-responder n (%), UAS7 = 0” value (Week 5) was 2 (5.4) n (%), the “Imputed non-responder n (%), UAS7 ≤6” value (Week 5) was 2 (5.4) n (%) and the “Non-responder n (%), UAS7 = 0” value (Week 5) was 36 (97.3) n (%). The “Non-responder n (%), UAS7 ≤6” value (Week 5) was 35 (94.6) n (%), the “OR for rilzabrutinib vs. placebo, UAS7 = 0” value (Week 5) was 0.923 and the “OR for rilzabrutinib vs. placebo, UAS7 ≤6” value (Week 5) was 0.986. The “RRD (%) … UAS7 = 0” value (Week 5) was −0.2 %, the “RRD (%) … UAS7 ≤6” value (Week 5) was −0.1% and the “Responder n (%), UAS7 = 0” value (Week 5) was 1 (2.7) n (%). For the same compound, the “Responder n (%), UAS7 ≤6” value (Week 5) was 2 (5.4) n (%), the “Imputed non-responder n (%), UAS7 = 0” value (Week 6) was 4 (10.8) n (%) and the “Imputed non-responder n (%), UAS7 ≤6” value (Week 6) was 4 (10.8) n (%). The “Non-responder n (%), UAS7 = 0” value (Week 6) was 36 (97.3) n (%), the “Non-responder n (%), UAS7 ≤6” value (Week 6) was 34 (91.9) n (%) and the “OR for rilzabrutinib vs. placebo, UAS7 = 0” value (Week 6) was 0.923. The “RRD (%) … UAS7 = 0” value (Week 6) was −0.2 %, the “RRD (%) … UAS7 ≤6” value (Week 6) was −7.8% and the “Responder n (%), UAS7 = 0” value (Week 6) was 1 (2.7) n (%). The “Responder n (%), UAS7 ≤6” value (Week 6) was 3 (8.1) n (%), the “Imputed non-responder n (%), UAS7 = 0” value (Week 7) was 6 (16.2) n (%) and the “Imputed non-responder n (%), UAS7 ≤6” value (Week 7) was 6 (16.2) n (%). The “Non-responder n (%), UAS7 = 0” value (Week 7) was 36 (97.3) n (%), the “Non-responder n (%), UAS7 ≤6” value (Week 7) was 36 (97.3) n (%) and the “OR for rilzabrutinib vs. placebo, UAS7 = 0” value (Week 7) was 1.061. For the same compound, the “OR for rilzabrutinib vs. placebo, UAS7 ≤6” value (Week 7) was 0.249, the “RRD (%) … UAS7 = 0” value (Week 7) was 0.2 % and the “RRD (%) … UAS7 ≤6” value (Week 7) was −8.3%. The “Responder n (%), UAS7 = 0” value (Week 7) was 1 (2.7) n (%), the “Responder n (%), UAS7 ≤6” value (Week 7) was 1 (2.7) n (%) and the “Imputed non-responder n (%), UAS7 = 0” value (Week 8) was 7 (18.9) n (%).
